Consider 22 molecules from patent publication US10189839B2, “Tricyclic imidazole compounds as inhibitors of tryptophan hydroxylase” (ACTELION PHARMACEUTICALS LTD, priority 2013, dated 2019).

One may read the IC50 as the concentration that gives 50% inhibition. A low value points to greater potency.

This assay concerns the target T1, full length human TPH1 (Homo sapiens, UniProt P17752).
T1 construct: To generate the enzyme, full length human TPH1 is cloned into the plasmid pET20b(+); made in house; host or cells: E. coli
T1 sequence (P17752 1-444): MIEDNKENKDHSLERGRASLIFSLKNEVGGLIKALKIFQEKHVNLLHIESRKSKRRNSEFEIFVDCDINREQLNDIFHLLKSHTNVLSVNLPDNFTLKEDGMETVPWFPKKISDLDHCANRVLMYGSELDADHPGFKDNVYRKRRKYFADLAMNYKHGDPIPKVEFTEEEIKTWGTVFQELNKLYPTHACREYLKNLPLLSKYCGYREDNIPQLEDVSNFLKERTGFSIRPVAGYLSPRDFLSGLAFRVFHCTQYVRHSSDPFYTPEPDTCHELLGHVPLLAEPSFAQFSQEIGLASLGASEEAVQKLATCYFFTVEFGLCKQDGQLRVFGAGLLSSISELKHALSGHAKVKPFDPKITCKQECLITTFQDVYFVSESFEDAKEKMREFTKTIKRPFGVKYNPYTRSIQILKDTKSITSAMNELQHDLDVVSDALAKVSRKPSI
As to the kind of experiment: Biochemical in vitro assay using fluorescence readout (TPH1 enzyme activity). To be noted: Table 1, mean where determined several times. An outline of the steps: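 IC50 (mean of repeats) derived from 5-hydroxy-L-tryptophan fluorescence at 540 nm (300 nm excitation) relative to vehicle, after perchloric acid stop. Reaction: 60 min, 15° C., pH 7.6 Tris-HCl, 40 μM L-tryptophan, 100 μM 6-methyltetrahydropterine, DTT, catalase, with 40-80 nM purified full-length human TPH1 from E. coli.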
With `CS(=O)(=O)Nc1ccc(OCC(=O)N2CCc3nc4n(c3C2c2ccc(Cl)cc2F)CCS4)c(Cl)n1` (stereo not shown) [Example 4.1.1, N-(6-chloro-5-(2-(5-(4-chloro-2-fluorophenyl)-2,3,7,8-tetrahydrothiazolo[2′,3′:2,3]imidazo[4,5-c]pyridin-6(5H)-yl)-2-oxoethoxy)pyridin-2-yl)methanesulfonamide], the midpoint of inhibition, the IC50, lay at 19 nM.

On to `O=C(COc1ccc(N2CCCS2(=O)=O)nc1Cl)N1CCc2nc3n(c2C1c1ccc(Cl)cc1F)CCS3` (stereo not shown) [Example 4.1.2, 1-(5-(4-chloro-2-fluorophenyl)-2,3,7,8-tetrahydrothiazolo[2′,3′:2,3]imidazo[4,5-c]pyridin-6(5H)-yl)-2-((2-chloro-6-(1,1-dioxidoisothiazolidin-2-yl)pyridin-3-yl)oxy)ethanone], for which the IC50 stood at 7 nM.

Take `CCc1nc(NS(C)(=O)=O)ccc1OCC(=O)N1CCc2nc3n(c2C1c1ccc(Cl)cc1F)CCS3` (stereo not shown) [Example 4.1.3, N-(5-(2-(5-(4-chloro-2-fluorophenyl)-2,3,7,8-tetrahydrothiazolo[2′,3′:2,3]imidazo[4,5-c]pyridin-6(5H)-yl)-2-oxoethoxy)-6-ethylpyridin-2-yl)methanesulfonamide]: the midpoint of inhibition, the IC50, lay at 16 nM.

`CN(c1ccc(OCC(=O)N2CCc3nc4n(c3C2c2ccc(Cl)cc2F)CCS4)c(Cl)n1)S(C)(=O)=O` (stereo not shown) [Example 4.1.4, N-(6-chloro-5-(2-(5-(4-chloro-2-fluorophenyl)-2,3,7,8-tetrahydrothiazolo[2′,3′:2,3]imidazo[4,5-c]pyridin-6(5H)-yl)-2-oxoethoxy)pyridin-2-yl)-N-methylmethanesulfonamide] displayed a half-maximal inhibitory concentration (IC50) of 16 nM.

`CN1CCN(c2ccc(OCC(=O)N3CCc4nc5n(c4C3c3ccc(Cl)cc3F)CCS5)c(Cl)n2)S1(=O)=O` (stereo not shown) [Example 4.1.5, 1-(5-(4-chloro-2-fluorophenyl)-2,3,7,8-tetrahydrothiazolo[2′,3′:2,3]imidazo[4,5-c]pyridin-6(5H)-yl)-2-((2-chloro-6-(5-methyl-1,1-dioxido-1,2,5-thiadiazolidin-2-yl)pyridin-3-yl)oxy)ethanone] returned an IC50 of 12 nM.

Molecule `CCc1nc(N2CCCS2(=O)=O)ccc1OCC(=O)N1CCc2nc3n(c2C1c1ccc(Cl)cc1F)CCS3` (stereo not shown) [Example 4.1.6, 1-(5-(4-chloro-2-fluorophenyl)-2,3,7,8-tetrahydrothiazolo[2′,3′:2,3]imidazo[4,5-c]pyridin-6(5H)-yl)-2-((6-(1,1-dioxidoisothiazolidin-2-yl)-2-ethylpyridin-3-yl)oxy)ethanone] had an IC50 of 12 nM.

The molecule `CCc1nc(NS(=O)(=O)N(C)C)ccc1OCC(=O)N1CCc2nc3n(c2C1c1ccc(Cl)cc1F)CCS3` (stereo not shown) [Example 4.1.7, N-(5-(2-(5-(4-chloro-2-fluorophenyl)-2,3,7,8-tetrahydrothiazolo[2′,3′:2,3]imidazo[4,5-c]pyridin-6(5H)-yl)-2-oxoethoxy)-6-ethylpyridin-2-yl)-N′,N′-dimethyl-sulfamide] came in with an IC50 of 76 nM.

`CCc1nc(C)ccc1OCC(=O)N1CCc2nc3n(c2C1c1ccc(Cl)cc1F)CCS3` (stereo not shown) [Example 4.1.8, 1-(5-(4-chloro-2-fluorophenyl)-2,3,7,8-tetrahydrothiazolo[2′,3′:2,3]imidazo[4,5-c]pyridin-6(5H)-yl)-2-((2-ethyl-6-methylpyridin-3-yl)oxy)ethanone] had an IC50 of 28 nM.

The molecule `CCc1nc(C(=O)NC2CC2)ccc1OCC(=O)N1CCc2nc3n(c2C1c1ccc(Cl)cc1F)CCS3` (stereo not shown) [Example 4.1.9, 5-(2-(5-(4-chloro-2-fluorophenyl)-2,3,7,8-tetrahydrothiazolo[2′,3′:2,3]imidazo[4,5-c]pyridin-6(5H)-yl)-2-oxoethoxy)-N-cyclopropyl-6-ethylpicolinamide] registered an IC50 of 31 nM.

Take `CCc1nc(NS(C)(=O)=O)ncc1OCC(=O)N1CCc2nc3n(c2C1c1ccc(Cl)cc1F)CCS3` (stereo not shown) [Example 4.1.10, N-(5-(2-(5-(4-chloro-2-fluorophenyl)-2,3,7,8-tetrahydrothiazolo[2′,3′:2,3]imidazo[4,5-c]pyridin-6(5H)-yl)-2-oxoethoxy)-4-ethylpyrimidin-2-yl)methanesulfonamide]: the midpoint of inhibition, the IC50, lay at 67 nM.

Consider `CCc1nc(Cl)ncc1OCC(=O)N1CCc2nc3n(c2C1c1ccc(Cl)cc1F)CCS3` (stereo not shown) [Example 4.1.11, 1-(5-(4-chloro-2-fluorophenyl)-2,3,7,8-tetrahydrothiazolo[2′,3′:2,3]imidazo[4,5-c]pyridin-6(5H)-yl)-2-((2-chloro-4-ethylpyrimidin-5-yl)oxy)ethanone], for which it took 185 nM to reach half-maximal inhibition (IC50).

`O=C(NC1CC1)c1ccc(OCC(=O)N2CCc3nc4n(c3C2c2ccc(Cl)cc2F)CCS4)c(Cl)n1` (stereo not shown) [Example 4.1.12, 6-chloro-5-(2-(5-(4-chloro-2-fluorophenyl)-2,3,7,8-tetrahydrothiazolo[2′,3′:2,3]imidazo[4,5-c]pyridin-6(5H)-yl)-2-oxoethoxy)-N-cyclopropylpicolinamide] returned an IC50 of 9 nM.

`O=C(COc1ccc(C2CC2)nc1Cl)N1CCc2nc3n(c2C1c1ccc(Cl)cc1F)CCS3` (stereo not shown) [Example 4.1.13, 1-(5-(4-chloro-2-fluorophenyl)-2,3,7,8-tetrahydrothiazolo[2′,3′:2,3]imidazo[4,5-c]pyridin-6(5H)-yl)-2-((2-chloro-6-cyclopropylpyridin-3-yl)oxy)ethanone] returned an IC50 of 11 nM.

On to `CCc1nc(C2CC2)ccc1OCC(=O)N1CCc2nc3n(c2C1c1ccc(Cl)cc1F)CCS3` (stereo not shown) [Example 4.1.14, 1-(5-(4-chloro-2-fluorophenyl)-2,3,7,8-tetrahydrothiazolo[2′,3′:2,3]imidazo[4,5-c]pyridin-6(5H)-yl)-2-((6-cyclopropyl-2-ethylpyridin-3-yl)oxy)ethanone], for which half-maximal inhibition (IC50) was put at 16 nM.

In turn, `CCc1nc(NS(C)(=O)=O)ccc1OCC(=O)N1CCc2nc3n(c2[C@@H]1c1ccc(Cl)cc1F)CCS3` [Example 4.1.15, (S)-N-(5-(2-(5-(4-chloro-2-fluorophenyl)-2,3,7,8-tetrahydrothiazolo[2′,3′:2,3]imidazo[4,5-c]pyridin-6(5H)-yl)-2-oxoethoxy)-6-ethylpyridin-2-yl)methanesulfonamide] came in with a half-maximal inhibitory concentration (IC50) of 6 nM.

`O=C(COc1ccc(N2CCCS2(=O)=O)nc1Cl)N1CCc2nc3n(c2[C@@H]1c1ccc(Cl)cc1F)CCS3` [Example 4.1.16, (S)-1-(5-(4-chloro-2-fluorophenyl)-2,3,7,8-tetrahydrothiazolo[2′,3′:2,3]imidazo[4,5-c]pyridin-6(5H)-yl)-2-((2-chloro-6-(1,1-dioxidoisothiazolidin-2-yl)pyridin-3-yl)oxy)ethanone] came in with an IC50 of 6 nM.

`CCc1nc(C(=O)NC2CC2)ccc1OCC(=O)N1CCc2nc3n(c2C1c1ncc(C2CC2)cc1F)CCS3` (stereo not shown) [Example 4.2.1, N-cyclopropyl-5-(2-(5-(5-cyclopropyl-3-fluoropyridin-2-yl)-2,3,7,8-tetrahydrothiazolo[2′,3′:2,3]imidazo[4,5-c]pyridin-6(5H)-yl)-2-oxoethoxy)-6-ethylpicolinamide] yielded a half-inhibitory concentration (IC50) of 8 nM.

Turning to `CCc1nc(NS(C)(=O)=O)ccc1OCC(=O)N1CCc2nc3n(c2C1c1ncc(C2CC2)cc1F)CCS3` (stereo not shown) [Example 4.2.2, N-(5-(2-(5-(5-cyclopropyl-3-fluoropyridin-2-yl)-2,3,7,8-tetrahydrothiazolo[2′,3′:2,3]imidazo[4,5-c]pyridin-6(5H)-yl)-2-oxoethoxy)-6-ethylpyridin-2-yl)methanesulfonamide], the IC50 turned out to be 8 nM.

The molecule `CCc1nc(C(=O)NC2CC2)ccc1OCC(=O)N1CCc2nc3n(c2[C@@H]1c1ncc(C2CC2)cc1F)CCS3` [Example 4.2.3, (R)-N-cyclopropyl-5-(2-(5-(5-cyclopropyl-3-fluoropyridin-2-yl)-2,3,7,8-tetrahydrothiazolo[2′,3′:2,3]imidazo[4,5-c]pyridin-6(5H)-yl)-2-oxoethoxy)-6-ethylpicolinamide] yielded an IC50 of 16 nM.

Molecule `CCc1nc(NS(C)(=O)=O)ccc1OCC(=O)N1CCc2nc3n(c2C1c1ccc(C2CC2)cc1F)CCS3` (stereo not shown) [Example 4.3.1, N-(5-(2-(5-(4-cyclopropyl-2-fluorophenyl)-2,3,7,8-tetrahydrothiazolo[2′,3′:2,3]imidazo[4,5-c]pyridin-6(5H)-yl)-2-oxoethoxy)-6-ethylpyridin-2-yl)methanesulfonamide] showed an IC50 of 6 nM.

`CS(=O)(=O)Nc1ccc(OCC(=O)N2CCc3nc4n(c3C2c2ccc(C3CC3)cc2F)CCS4)c(Cl)n1` (stereo not shown) [Example 4.3.2, N-(6-chloro-5-(2-(5-(4-cyclopropyl-2-fluorophenyl)-2,3,7,8-tetrahydrothiazolo[2′,3′:2,3]imidazo[4,5-c]pyridin-6(5H)-yl)-2-oxoethoxy)pyridin-2-yl)methanesulfonamide] registered an IC50 of 10 nM.

`O=C(NC1CC1)c1ccc(OCC(=O)N2CCc3nc4n(c3C2c2ccc(C3CC3)cc2F)CCS4)c(Cl)n1` (stereo not shown) [Example 4.3.3, 6-chloro-N-cyclopropyl-5-(2-(5-(4-cyclopropyl-2-fluorophenyl)-2,3,7,8-tetrahydrothiazolo[2′,3′:2,3]imidazo[4,5-c]pyridin-6(5H)-yl)-2-oxoethoxy)picolinamide] came in with an IC50 of 14 nM.
